From patent US9328138B2 (priority 2011, dated 2016)
pKi: −log10 of the molar value. Counter-ions that a name gives are not always drawn.

Columns and labels:
[1] = molecular target: T1, HCV genotype 1b (BK) NS3 modified enzyme with a R155K mutation (Hepatitis C virus genotype 1b, UniProt P26663, R1181K); experiment: HCV NS3 protease time-resolved fluorescence (TRF) assay, genotype 1b R155K; assay type: biochemical; conditions: Ki 1b R155K
T1 construct: HCV genotype 1b (BK) NS3 modified enzyme
Protocol: (§1) The HCV NS3 protease inhibitory activity of the present compounds may be tested using assays known in the art. One such assay is HCV NS3 protease time-resolved fluorescence (TRF) assay as described below and in International Patent Application Publication No. WO2006/102087. Other examples of such assays are described in e.g., International Patent Application Publication No. WO2005/046712. The assay is performed in a final volume of 100 μl in assay buffer containing 50 mM HEPES, pH 7.5, 150 mM NaCl, 15% glycerol, 0.15% Triton X-100, 10 mM DTT, and 0.1% PEG 8000. NS3 protease is pre-incubated with various concentrations of inhibitors in DMSO for 30 minutes. The reaction is initiated by adding the TRF peptide substrate (final concentration 100 nM). NS3 mediated hydrolysis of the substrate is quenched after 1 hour at room temperature with 100 μl of 500 mM MES, pH 5.5. Product fluorescence is detected using either a VICTOR V2 or FUSION fluorophotometer (Perkin Elmer Life and Analytical Sciences) with excitation at 340 nm and emission at 615 nm with a 400 μs delay. Testing concentrations of different enzyme forms are selected to result in a signal to background ratio (S/B) of 10-30. IC50 values are derived using a standard four-parameter fit to the data. K; values are derived from IC50 values using the following formula, IC50=Ki(1+[S]/Km), Eqn (1), where [S] is the concentration of substrate peptide in the reaction and KM is the Michaelis constant. See Gallinari et al., 1999, Biochem. 38:5620-32; Gallinari et al., 1998, J. Virol. 72:6758-69; Taliani et al., 1996, Anal. Biochem. 240:60-67.
(§2) The HCV NS3 protease inhibitory activity was measured using the protease time-resolved fluorescence (TRF) assay as described below and in International Patent Application Publication No. WO 2006/102087. The assay was performed with HCV genotype 1b (BK) NS3 modified enzyme with a R155K mutation and genotype 3a (3A-1).
(§3) The assay was performed in a final volume of 50 μl in assay buffer containing 50 mM HEPES, pH 7.5, 150 mM NaCl, 15% glycerol, 0.15% TRITON X-100, 10 mM DTT, and 0.1% PEG 8000. NS3 and NS4A protease is pre-incubated with various concentrations of inhibitors in DMSO for 10 minutes. The reaction was initiated by adding the TRF peptide substrate (final concentration 25 nM) and NS3 mediated hydrolysis of the substrate proceeds for 6 hours at room temperature. Product fluorescence is detected using an Envision plate reader (Perkin Elmer) with excitation at 340 nm and emission at 615 nm with a 400 μs delay. Testing concentrations of the enzymes were selected to result in a signal to background ratio (S/B) of 5-20. IC50 values are derived using a standard four-parameter fit to the data.
(§4) NS3 and NS4A protease is pre-incubated with various concentrations of inhibitors in DMSO for 30 minutes. The reaction is initiated by adding the TRF peptide substrate (final concentration 100 nM). NS3 mediated hydrolysis of the substrate is quenched after 1 hour at room temperature with 100 μl of 500 mM MES, pH 5.5. Product fluorescence is detected using either a VICTOR V2 or FUSION fluorophotometer (Perkin Elmer Life and Analytical Sciences) with excitation at 340 nm and emission at 615 nm with a 400 μs delay. Testing concentrations of the enzymes are selected to result in a signal to background ratio (S/B) of 8-30. IC50 values are derived using a standard four-parameter fit to the data. Ki values are derived from IC50 values using the following formula, IC50=Ki(1+[S][…]), Eqn (1), where [S] is the concentration of substrate peptide in the reaction and KM is the Michaelis constant. See Gallinari et al., 1999, Biochem. 38:5620-32; Gallinari et al., 1998, J. Virol. 72:6758-69; and Taliani et al., 1996, Anal. Biochem. 240:60-67. ND means not determined.

[2] = molecular target: HCV NS3 protease genotype 3a (3A-1) (Hepatitis C virus genotype 3a, UniProt Q81258); experiment: HCV NS3 protease time-resolved fluorescence (TRF) assay, genotype 3a; assay type: biochemical; conditions: Ki 3a
Protocol: as §1, §2, §3, §4

[3] = genotype 1b (BK) NS3 R155K, single value
[4] = first of two values printed in the cell (not explained)
[5] = second of two values printed in the cell (not explained)

Row | SMILES | pKi [1, 3] | pKi [2] | pKi [1, 4] | pKi [1, 5]
1 | C=C[C@@H]1C[C@]1(NC(=O)[C@@H]1C[C@@H]2CN1C(=O)[C@H](C1CCCC1)NC(=O)O[C@]1(C)CCC[C@H]1CCCCCc1c(nc3ccccc3c1O)O2)C(=O)NS(=O)(=O)C1CC1 (single isomer, unassigned) [Example 29] | 9.92 |  |  | 
2 | CC[C@@H]1C[C@]1(NC(=O)[C@@H]1C[C@@H]2CN1C(=O)[C@H](C1CCCC1)NC(=O)OC1(C)CCCC1CCCCCc1c(nc3ccccc3c1O)O2)C(=O)NS(=O)(=O)C1CC1 (single isomer, unassigned) [Example 32] | 9.27 | 8.04 |  | 
3 | C=C[C@@H]1C[C@]1(NC(=O)[C@@H]1C[C@@H]2CN1C(=O)[C@H](C(C)(C)C)NC(=O)O[C@@H]1C[C@H]1CCCCCc1c(nc3ccccc3c1OC1C3COCC1CN(C(=O)OC(C)(C)C)C3)O2)C(=O)NS(=O)(=O)C1(C)CC1 (single isomer, unassigned) [Example 254] |  | 7.32 | 9.94 | 8.64
4 | C=C[C@@H]1C[C@]1(NC(=O)[C@@H]1C[C@@H]2CN1C(=O)[C@H](C(C)(C)C)NC(=O)O[C@@H]1C[C@H]1CCCCCc1c(nc3ccccc3c1OC1C3COCC1CN(C(=O)OC(C)(C)C)C3)O2)C(=O)NS(=O)(=O)C1(C)CC1 (single isomer, unassigned) [Example 255] |  | 7.23 | 9.92 | 8.66
5 | C=C[C@@H]1CC1(NC(=O)[C@@H]1C[C@@H]2CN1C(=O)[C@H](C(C)(C)C)NC(=O)O[C@@H]1C[C@H]1CCCCCc1c(nc3ccccc3c1OC1C3CNCC1COC3)O2)C(=O)NS(=O)(=O)C1(C)CC1 (single isomer, unassigned) [Example 258, trifluoroacetate] |  | 8.56 | 10.92 | 10.10
6 | C=C[C@@H]1CC1(NC(=O)[C@@H]1C[C@@H]2CN1C(=O)[C@H](C(C)(C)C)NC(=O)O[C@@H]1C[C@H]1CCCCCc1c(nc3ccccc3c1OC1C3CNCC1COC3)O2)C(=O)NS(=O)(=O)C1(C)CC1 (single isomer, unassigned) [Example 259, trifluoroacetate] |  | 8.13 | 10.52 | 9.46
7 | C=C[C@@H]1C[C@]1(NC(=O)[C@@H]1C[C@@H]2CN1C(=O)[C@H](C(C)(C)C)NC(=O)O[C@@H]1C[C@H]1CCCCCc1c(nc3ccccc3c1OC1CC3CCC(C1)N3C(=O)OC(C)(C)C)O2)C(=O)NS(=O)(=O)C1(C)CC1 (single isomer, unassigned) [Example 273] |  | 7.17 | 10.00 | 8.73
8 | C=C[C@@H]1C[C@]1(NC(=O)[C@@H]1C[C@@H]2CN1C(=O)[C@H](C(C)(C)C)NC(=O)O[C@@H]1C[C@H]1CCCCCc1c(nc3ccccc3c1OC1CC3CCC(C1)N3)O2)C(=O)NS(=O)(=O)C1(C)CC1 (single isomer, unassigned) [Example 274] |  | 10.03 | 10.82 | 10.82
9 | C=C[C@@H]1C[C@]1(NC(=O)[C@@H]1C[C@@H]2CN1C(=O)[C@H](C(C)(C)C)NC(=O)O[C@@H]1C[C@H]1CCCCCc1c(nc3ccccc3c1OC1CC3CCC(C1)N3CCOC)O2)C(=O)NS(=O)(=O)C1(C)CC1 (single isomer, unassigned) [Example 276] |  | 9.85 | 10.89 | 10.72
10 | C=C[C@@H]1C[C@]1(NC(=O)[C@@H]1C[C@@H]2CN1C(=O)[C@H](C(C)(C)C)NC(=O)O[C@@H]1C[C@H]1CCCCCc1c(nc3ccccc3c1OC1CC3CCC(C1)N3CC)O2)C(=O)NS(=O)(=O)C1(C)CC1 (single isomer, unassigned) [Example 277] |  | 10.11 | 11.10 | 10.89
11 | C=C[C@@H]1C[C@]1(NC(=O)[C@@H]1C[C@@H]2CN1C(=O)[C@H](C(C)(C)C)NC(=O)O[C@@H]1C[C@H]1CCCCCc1c(nc3ccccc3c1OC1CC3CCC(C1)N3C(=O)OC(C)(C)C)O2)C(=O)NS(=O)(=O)C1(C)CC1 (single isomer, unassigned) [Example 278] |  | 6.13 | 9.07 | 7.70
12 | C=C[C@@H]1C[C@]1(NC(=O)[C@@H]1C[C@@H]2CN1C(=O)[C@H](C(C)(C)C)NC(=O)O[C@@H]1C[C@H]1CCCCCc1c(nc3ccccc3c1OC1CC3CCC(C1)N3)O2)C(=O)NS(=O)(=O)C1(C)CC1 (single isomer, unassigned) [Example 279, trifluoroacetate] |  | 8.59 | 10.92 | 9.84
13 | C=C[C@@H]1C[C@]1(NC(=O)[C@@H]1C[C@@H]2CN1C(=O)[C@H](C(C)(C)C)NC(=O)O[C@@H]1C[C@H]1CCCCCc1c(nc3ccccc3c1OC1CC3CCC(C1)N3CCOC)O2)C(=O)NS(=O)(=O)C1(C)CC1 (single isomer, unassigned) [Example 280] |  | 8.33 | 10.62 | 9.55
14 | C=C[C@@H]1C[C@]1(NC(=O)[C@@H]1C[C@@H]2CN1C(=O)[C@H](C(C)(C)C)NC(=O)O[C@@H]1C[C@H]1CCCCCc1c(nc3ccccc3c1OC1CC3CCC(C1)N3CC)O2)C(=O)NS(=O)(=O)C1(C)CC1 (single isomer, unassigned) [Example 281] |  | 8.90 | 10.80 | 9.90
15 | C=C[C@@H]1CC1(NC(=O)[C@@H]1C[C@@H]2CN1C(=O)[C@H](C1CCCCC1)NC(=O)O[C@@H]1C[C@H]1CCCCCc1c(nc3ccccc3c1OC1CCNCC1F)O2)C(=O)NS(=O)(=O)C1(C)CC1 (stereo in doubt) [Example 293, (3S,4R)-4-{[(1aR,5S,8S,10R,22aR)-5-cyclohexyl-8-{[(1R,2S)-2-ethenyl-1-{[(1-methylcyclopropyl)sulfonyl]carbamoyl}cyclopropyl]carbamoyl}-3,6-dioxo-1,1a,3,4,5,6,9,10,18,19,20,21,22,22a-tetradecahydro-8H-7,10-methanocyclopropa[18,19][1,10,3,6]dioxadiazacyclononadecino[11,12-b]quinolin-17-yl]oxy}-3-fluoropiperidinium chloride] |  | 8.89 | 10.54 | 9.86
16 | C=C[C@@H]1C[C@]1(NC(=O)[C@@H]1C[C@@H]2CN1C(=O)[C@H](C1CCCC1)NC(=O)O[C@]1(C)C[C@H]1CC/C=C/Cc1c(nc3ccccc3c1O)O2)C(=O)NS(=O)(=O)C1CC1 [Example 19, (1aR,5S,8S,10R,19E,22aR)-5-cyclopentyl-N-{(1R,2S)-1-[(cyclopropylsulfonyl)carbamoyl]-2-ethenylcyclopronyl}-17-hydroxy-1a-methyl-3,6-dioxo-1,1a,3,4,5,6,9,10,18,21,22,22a-dodecahydro-8H-7,10-methanocyclopropa[18,19][1,10,3,6]dioxadiazacyclononadecino[11,12-b]quinoline-8-carboxamide] | 10.04 |  |  | 
